# Calls of active or inactive are those of the source.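 How the source made its calls: active means ranking score of 15 or more out of 100, based on fitted potency or summed per-dose inhibition deviations; inactive means the rest.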
# Tested on: exon1htt(103Q)-mCFP cells, aggregate imaging, high-content
# Test: concentration-dependent loss of polyQ htt inclusions – imaging, exon1htt(103Q)-mCFP cells, high-content imaging, dose response (AID 486)
row,SMILES,IC50
1,Cc1cc(C)c(C)c(S(=O)(=O)Nc2ccc(O)cc2)c1C,> 8 µM (inactive)
2,Cc1nc(NC2=NCN(CC3CCCO3)CN2)nc2ccccc12 (stereo not given),> 8 µM (inactive)
3,COc1ccc(OC)c(C(=O)CSc2nnc(-c3ccc(OC)c(OC)c3)o2)c1,> 8 µM (inactive)
4,CCOC(=O)C1=C(C)NC(SC(C)=O)=NC1c1ccc(OC(C)=O)c(OC)c1 (stereo not given),> 8 µM (inactive)
5,COC(=O)c1c(N)nc(C)n1-c1ccc(OC)cc1,> 8 µM (inactive)
6,CS(=O)(=O)N(CC(=O)NCCSCc1cccc(Cl)c1)c1ccc2c(c1)OCO2,> 8 µM (inactive)
7,COc1ccc(CCNC(=O)C2=COCCO2)cc1,> 8 µM (inactive)
8,CCOC(=O)c1cc2c(=O)n3ccccc3nc2n(CCCOC)c1=NC(=O)C(C)(C)C,> 8 µM (inactive)
9,O=C(NCc1ccco1)c1ccccc1Nc1ccc(F)cc1,> 8 µM (inactive)
10,COc1ccc(CNc2nc3nc(C)cc(C)n3n2)cc1OC,> 8 µM (inactive)
11,O=c1oc2c3c4c(cc2cc1-c1nc2ccccc2[nH]1)CCCN4CCC3,> 8 µM (inactive)
12,CN(C)[C@@H]1C(=O)C(C(N)=O)=C(O)[C@@]2(O)C(=O)C3=C(O)c4c(O)cccc4[C@@](C)(O)[C@H]3C[C@@H]12,0.08 µM
13,COc1ccc(-c2nc(C#N)c(N3CCOCC3)o2)cc1OC,> 8 µM (inactive)
14,CC1(C)CC(=O)C(C=NCCO)=C(O)C1,> 8 µM (inactive)
15,O=C(O)CCn1[nH]c(=O)ccc1=O,> 8 µM (inactive)
16,CC(C)(C)NC(=O)CN(Cc1cccs1)C(=O)c1csnn1,> 8 µM (inactive)
17,O=C(CSc1nnc(-c2ccco2)n1-c1ccccc1)N1CCN(C(=O)c2ccco2)CC1,> 8 µM (inactive)
18,CCn1ncc(C2=NOC(C(=O)NCc3ccccc3)C2)c1C (stereo not given),> 8 µM (inactive)
19,OCCNC1=NCCN1,> 8 µM (inactive)
20,Cc1ncoc1C(=O)Nc1cccc(Cl)c1C,> 8 µM (inactive)
21,COc1ccc(NC(=O)CCc2nc(-c3ccccc3F)no2)cc1,> 8 µM (inactive)
22,Cc1nnc(SC(=O)N2c3ccccc3Sc3ccccc32)s1,> 8 µM (inactive)
23,Cc1cc(C)c(OCC(=O)Nc2cccc(O)c2)cc1C,> 8 µM (inactive)

row,SMILES,IC50
1,CN(C)[C@@H]1C(=O)C(C(N)=O)=C(O)[C@@]2(O)C(=O)C3=C(O)c4c(O)ccc(Cl)c4[C@@H](O)[C@H]3C[C@@H]12,< 0.01 µM
2,CCOC(=O)C1CCN(c2nc3ccccc3nc2C(C#N)C(=O)OC(C)C)CC1 (stereo not given),> 8 µM (inactive)
3,Cc1ccc(/C=c2\sc3nc(-c4ccccc4Br)nn3c2=O)o1,> 8 µM (inactive)
4,Cn1c(=O)oc2cc(S(=O)(=O)NC3CCN(Cc4ccccc4)CC3)ccc21,> 8 µM (inactive)
5,CC(C)CCNC(=O)C(C)N(Cc1ccc(F)cc1)C(=O)c1ccc(CN2CCCCC2)o1 (stereo not given),> 8 µM (inactive)
6,CC(C)(C)OC(=O)N1CC=C2C(C#N)=C(N)C(C#N)(C#N)[C@H](c3cccnc3)[C@H]2C1,> 8 µM (inactive)
7,O=C(CCN1CCN(c2ccc(F)cc2)CC1)Nc1ccccc1F,> 8 µM (inactive)
8,C=C(C)CSc1nnc(-c2cccc(S(=O)(=O)N(C)C)c2)n1-c1cc(OC)ccc1OC,> 8 µM (inactive)
9,COc1ccc(N2CCC(CNS(=O)(=O)c3cccc(C(F)(F)F)c3)C2)cc1 (stereo not given),> 8 µM (inactive)
10,COc1ccccc1-n1c(=O)c2c3c(sc2n2c(SC(C)C)nnc12)CCC3,> 8 µM (inactive)
11,Cc1ccnc(NC(=O)C2CCCN(S(=O)(=O)c3cnc[nH]3)C2)c1 (stereo not given),> 8 µM (inactive)
12,Nc1nonc1NC(=O)CSc1nc2ccccc2s1,> 8 µM (inactive)
13,CN(C)C(=O)N1CCC(C(=O)NC2CCCCCCC2)CC1,> 8 µM (inactive)
14,C#CC1(O)CC(C)N(C)C(C)C1 (stereo not given),> 8 µM (inactive)
15,CCn1cc(C(=O)NCCC2=CCCCC2)c(=O)c2cc(S(=O)(=O)N(C)C)ccc21,> 8 µM (inactive)
16,CN(C)[C@@H]1C(=O)C(C(N)=O)=C(O)[C@@]2(O)C(=O)C3=C(O)c4c(O)ccc(Cl)c4[C@@](C)(O)C3C[C@@H]12 (stereo not given in full),< 0.01 µM
17,CCOC(=O)c1sc2ncn(/N=C/N(C)C)c(=O)c2c1C,> 8 µM (inactive)
18,COc1ccc(Cc2nnc3n2N=C(c2cc4ccccc4o2)CS3)cc1OC,> 8 µM (inactive)
19,O=C(Nc1ncnc2sc3c(c12)CCCCC3)c1ccco1,> 8 µM (inactive)
20,Cn1c(-c2ccc(F)cc2)cnc1SCC(=O)Nc1ccccc1N1CCOCC1,> 8 µM (inactive)
21,CCn1c(C(=O)N2CCCC(C(=O)NCCCc3ccccc3)C2)cc2sccc21 (stereo not given),> 4 µM (inactive)
22,O=C(CSc1nnc(CNC(=O)c2c(F)cccc2Cl)o1)c1ccccc1,> 8 µM (inactive)

# Source: PubChem BioAssay AID486 (Columbia University Molecular Screening Center, 2006)
